Converted amounts (≈) assume the structure as drawn.
Experiments:
Test in all cases: minimum inhibitory concentration (ETEST)
[1] = tested on: Neisseria bacilliformis; settings: isolate id (sample isolate): Co000780_5; population: general population; antibiotic use in previous 6 months: No
Protocol: (§1)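 Oropharyngeal Neisseria isolates from MSM and employees in Belgium were identified to species by MALDI-TOF MS. MICs of azithromycin, ceftriaxone and ciprofloxacin were determined by ETEST on GC agar after 24 h at 36.5 °C and 5-7% CO2, in mg/L. Values beyond the strip range are reported as >256 (azithromycin) or <0.016 (ceftriaxone); isolates that did not grow are NA.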

[2] = tested on: Neisseria cinerea; settings: population: general population, antibiotic use in previous 6 months: No
Protocol: as §1

[3] = tested on: Neisseria elongata; settings: population: general population, antibiotic use in previous 6 months: No
Protocol: as §1

[4] = tested on: Neisseria gonorrhoeae; settings: isolate id (sample isolate): 19113052_3; population: MSM; antibiotic use in previous 6 months: No
Protocol: as §1

[5] = tested on: Neisseria oralis; settings: population: general population, antibiotic use in previous 6 months: No
Protocol: as §1

[6] = tested on: Neisseria subflava/flavescens/perflava
Protocol: as §1

## CO/N=C(\C(=O)N[C@@H]1C(=O)N2C(C(=O)O)=C(CSc3nc(=O)c(O)nn3C)CS[C@H]12)c1csc(N)n1 [ceftriaxone]
[1]
  minimum inhibitory concentration: 1.5 µg/mL (≈ 2.7 µM)
[2]; isolate id (sample isolate): Co000769_3
  minimum inhibitory concentration: < 0.016 µg/mL
[2]; isolate id (sample isolate): Co000776_4
  minimum inhibitory concentration: < 0.016 µg/mL
[2]; isolate id (sample isolate): Co000776_5
  minimum inhibitory concentration: < 0.016 µg/mL
[2]; isolate id (sample isolate): Co000782_1
  minimum inhibitory concentration: < 0.016 µg/mL
[3]; isolate id (sample isolate): Co000767_3
  minimum inhibitory concentration: 0.19 µg/mL (≈ 0.343 µM)
[3]; isolate id (sample isolate): Co000780_1
  minimum inhibitory concentration: 0.047 µg/mL (≈ 0.0847 µM)
[3]; isolate id (sample isolate): Co000783_4
  minimum inhibitory concentration: 0.023 µg/mL (≈ 0.0415 µM)
[4]
  minimum inhibitory concentration: < 0.016 µg/mL
[5]; isolate id (sample isolate): Co000761_7
  minimum inhibitory concentration: 0.064 µg/mL (≈ 0.115 µM)
[5]; isolate id (sample isolate): Co000763_1
  minimum inhibitory concentration: 0.032 µg/mL (≈ 0.0577 µM)
[5]; isolate id (sample isolate): Co000766_2
  minimum inhibitory concentration: 0.023 µg/mL (≈ 0.0415 µM)
[5]; isolate id (sample isolate): Co000770_1
  minimum inhibitory concentration: 0.064 µg/mL (≈ 0.115 µM)
[5]; isolate id (sample isolate): Co000774_1
  minimum inhibitory concentration: 0.032 µg/mL (≈ 0.0577 µM)
[5]; isolate id (sample isolate): Co000776_1
  minimum inhibitory concentration: 0.047 µg/mL (≈ 0.0847 µM)
[5]; isolate id (sample isolate): Co000776_1.1
  minimum inhibitory concentration: 0.047 µg/mL (≈ 0.0847 µM)
[5]; isolate id (sample isolate): Co000779_2
  minimum inhibitory concentration: 0.094 µg/mL (≈ 0.169 µM)
[5]; isolate id (sample isolate): Co000790_5
  minimum inhibitory concentration: 0.064 µg/mL (≈ 0.115 µM)
[6]; isolate id (sample isolate): 19041762_1, population: MSM, antibiotic use in previous 6 months: Yes
  minimum inhibitory concentration: 0.016 µg/mL (≈ 0.0289 µM)
[6]; isolate id (sample isolate): 19041762_1.1, population: MSM, antibiotic use in previous 6 months: Yes
  minimum inhibitory concentration: 0.023 µg/mL (≈ 0.0415 µM)
[6]; isolate id (sample isolate): 19041780_1, population: MSM, antibiotic use in previous 6 months: Yes
  minimum inhibitory concentration: 0.064 µg/mL (≈ 0.115 µM)
[6]; isolate id (sample isolate): 19042150_1, population: MSM, antibiotic use in previous 6 months: Yes
  minimum inhibitory concentration: 0.5 µg/mL (≈ 0.902 µM)
[6]; isolate id (sample isolate): 19042150_3, population: MSM, antibiotic use in previous 6 months: Yes
  minimum inhibitory concentration: 0.047 µg/mL (≈ 0.0847 µM)
[6]; isolate id (sample isolate): 19042756_1, population: MSM, antibiotic use in previous 6 months: Yes
  minimum inhibitory concentration: 0.023 µg/mL (≈ 0.0415 µM)
[6]; isolate id (sample isolate): 19042756_2, population: MSM, antibiotic use in previous 6 months: Yes
  minimum inhibitory concentration: 0.023 µg/mL (≈ 0.0415 µM)
[6]; isolate id (sample isolate): 19043201_1.1, population: MSM, antibiotic use in previous 6 months: No
  minimum inhibitory concentration: 0.047 µg/mL (≈ 0.0847 µM)
[6]; isolate id (sample isolate): 19043201_2.1, population: MSM, antibiotic use in previous 6 months: No
  minimum inhibitory concentration: 1 µg/mL (≈ 1.8 µM)
[6]; isolate id (sample isolate): 19043201_3, population: MSM, antibiotic use in previous 6 months: No
  minimum inhibitory concentration: 0.064 µg/mL (≈ 0.115 µM)
[6]; isolate id (sample isolate): 19043274_3, population: MSM, antibiotic use in previous 6 months: Yes
  minimum inhibitory concentration: 0.064 µg/mL (≈ 0.115 µM)
[6]; isolate id (sample isolate): 19050474_1, population: MSM, antibiotic use in previous 6 months: No
  minimum inhibitory concentration: 0.047 µg/mL (≈ 0.0847 µM)
[6]; isolate id (sample isolate): 19050514_1, population: MSM, antibiotic use in previous 6 months: Yes
  minimum inhibitory concentration: 0.047 µg/mL (≈ 0.0847 µM)
[6]; isolate id (sample isolate): 19050949_1, population: MSM, antibiotic use in previous 6 months: No
  minimum inhibitory concentration: 0.032 µg/mL (≈ 0.0577 µM)
[6]; isolate id (sample isolate): 19050949_2, population: MSM, antibiotic use in previous 6 months: No
  minimum inhibitory concentration: 0.023 µg/mL (≈ 0.0415 µM)
[6]; isolate id (sample isolate): 19050949_2.1, population: MSM, antibiotic use in previous 6 months: No
  minimum inhibitory concentration: 0.016 µg/mL (≈ 0.0289 µM)
[6]; isolate id (sample isolate): 19051904_2, population: MSM, antibiotic use in previous 6 months: Yes
  minimum inhibitory concentration: 0.064 µg/mL (≈ 0.115 µM)
[6]; isolate id (sample isolate): 19051904_3, population: MSM, antibiotic use in previous 6 months: Yes
  minimum inhibitory concentration: 0.064 µg/mL (≈ 0.115 µM)
[6]; isolate id (sample isolate): 19052394_1, population: MSM, antibiotic use in previous 6 months: Yes
  minimum inhibitory concentration: 0.032 µg/mL (≈ 0.0577 µM)
[6]; isolate id (sample isolate): 19052394_1.1, population: MSM, antibiotic use in previous 6 months: Yes
  minimum inhibitory concentration: 0.023 µg/mL (≈ 0.0415 µM)
[6]; isolate id (sample isolate): 19060089_1, population: MSM, antibiotic use in previous 6 months: Yes
  minimum inhibitory concentration: 0.047 µg/mL (≈ 0.0847 µM)
[6]; isolate id (sample isolate): 19062994_1, population: MSM, antibiotic use in previous 6 months: Yes
  minimum inhibitory concentration: 0.047 µg/mL (≈ 0.0847 µM)
[6]; isolate id (sample isolate): Co000761_2, population: general population, antibiotic use in previous 6 months: No
  minimum inhibitory concentration: 0.023 µg/mL (≈ 0.0415 µM)
[6]; isolate id (sample isolate): Co000761_3, population: general population, antibiotic use in previous 6 months: No
  minimum inhibitory concentration: 0.032 µg/mL (≈ 0.0577 µM)
[6]; isolate id (sample isolate): Co000761_5, population: general population, antibiotic use in previous 6 months: No
  minimum inhibitory concentration: 0.016 µg/mL (≈ 0.0289 µM)
[6]; isolate id (sample isolate): Co000761_6, population: general population, antibiotic use in previous 6 months: No
  minimum inhibitory concentration: 0.016 µg/mL (≈ 0.0289 µM)
[6]; isolate id (sample isolate): Co000762_3, population: general population, antibiotic use in previous 6 months: No
  minimum inhibitory concentration: 0.094 µg/mL (≈ 0.169 µM)
[6]; isolate id (sample isolate): Co000762_4, population: general population, antibiotic use in previous 6 months: No
  minimum inhibitory concentration: 0.094 µg/mL (≈ 0.169 µM)
[6]; isolate id (sample isolate): Co000763_2, population: general population, antibiotic use in previous 6 months: No
  minimum inhibitory concentration: 0.032 µg/mL (≈ 0.0577 µM)
[6]; isolate id (sample isolate): Co000764_1, population: general population, antibiotic use in previous 6 months: No
  minimum inhibitory concentration: 0.032 µg/mL (≈ 0.0577 µM)
[6]; isolate id (sample isolate): Co000764_2, population: general population, antibiotic use in previous 6 months: No
  minimum inhibitory concentration: 0.023 µg/mL (≈ 0.0415 µM)
[6]; isolate id (sample isolate): Co000765_2, population: general population, antibiotic use in previous 6 months: No
  minimum inhibitory concentration: 0.047 µg/mL (≈ 0.0847 µM)
[6]; isolate id (sample isolate): Co000765_3, population: general population, antibiotic use in previous 6 months: No
  minimum inhibitory concentration: 0.032 µg/mL (≈ 0.0577 µM)
[6]; isolate id (sample isolate): Co000765_4, population: general population, antibiotic use in previous 6 months: No
  minimum inhibitory concentration: 0.023 µg/mL (≈ 0.0415 µM)
[6]; isolate id (sample isolate): Co000766_1, population: general population, antibiotic use in previous 6 months: No
  minimum inhibitory concentration: 0.023 µg/mL (≈ 0.0415 µM)
[6]; isolate id (sample isolate): Co000766_3, population: general population, antibiotic use in previous 6 months: No
  minimum inhibitory concentration: 0.032 µg/mL (≈ 0.0577 µM)
[6]; isolate id (sample isolate): Co000767_1, population: general population, antibiotic use in previous 6 months: No
  minimum inhibitory concentration: 0.023 µg/mL (≈ 0.0415 µM)
[6]; isolate id (sample isolate): Co000767_2, population: general population, antibiotic use in previous 6 months: No
  minimum inhibitory concentration: 0.023 µg/mL (≈ 0.0415 µM)
[6]; isolate id (sample isolate): Co000767_4, population: general population, antibiotic use in previous 6 months: No
  minimum inhibitory concentration: 0.023 µg/mL (≈ 0.0415 µM)
[6]; isolate id (sample isolate): Co000767_5, population: general population, antibiotic use in previous 6 months: No
  minimum inhibitory concentration: 0.064 µg/mL (≈ 0.115 µM)
[6]; isolate id (sample isolate): Co000767_6, population: general population, antibiotic use in previous 6 months: No
  minimum inhibitory concentration: 0.023 µg/mL (≈ 0.0415 µM)
